The values below come from ChEMBL document CHEMBL1158833, “Roquefortine E, a diketopiperazine from an Australian isolate of Gymnoascus reessii” (2005).

The nature of assay [1]: Cytotoxicity against mouse NS1 cells. Type of assay: functional.
Another assay has as its system Bacillus subtilis. Nature of the assay: Antimicrobial activity against Bacillus subtilis. It counts as functional.

In brackets after ≈: the same amount, converted by molar mass.

Turning to `C=CC(C)(C)c1[nH]cnc1/C=C1/NC(=O)[C@@H]2C[C@@]3(C(C)(C)C=C)c4ccccc4N[C@H]3N2C1=O` [ROQUEFORTINE E], the LD99 in assay [1] was determined as 24 µg/mL. With `C=CC(C)(C)[C@@]12C[C@H]3C(=O)N/C(=C/c4c[nH]cn4)C(=O)N3[C@@H]1Nc1ccccc12` [ROQUEFORTINE C], the LD99 in assay [1] was 50 µg/mL. In the assay with Bacillus subtilis, the MIC turned out to be 6.3 µg/mL (≈ 16.2 µM).
